# What was measured:
# Raji cells = assay: BrdU incorporation assay, glucocorticoid sensitivity of oligonucleotide-transfected Raji cells; type: cell-based, human; details: quadruplicate (Table 7), label dexamethasone = no oligonucleotide transfected
# Experimental: In order to examine the change of glucocorticoid sensitivity of cells caused by introduction of oligonucleotide 1, cell proliferation was quantified by a 5-bromo-2′-deoxyuridine (BrdU) incorporation assay. Dexamethasone (manufactured by Biomol) was used as a glucocorticoid. The concentration of dexamethasone was set to varied concentrations of 0 μM (no addition), 0.1 μM, 0.5 μM, 1 μM, 5 μM, and 10 μM.
# Raji cells were cultured in serum-free RPMI1640 medium for 12 hours to synchronize the cell cycle, and then re-suspended in RPMI1640 medium supplemented with serum and inoculated onto a 96-well plate.
# After dexamethasone was added, the cells were cultured for 22 hours. Then, BrdU was added thereto, and the cells were cultured for another 2 hours. After centrifugation, the supernatant was discarded, and the cells were dried and fixed. The fixed cells were allowed to react with a peroxidase-labeled anti-BrdU antibody for 1 hour at room temperature. Subsequently, the cells were washed three times with PBS, and tetramethylbenzidine was added thereto. When noticeable coloring was observed, the reaction was stopped by adding H2SO4 (1M). After vigorous agitation, absorbance at 450 nm was measured using a plate reader.
# Using the Raji cells to which dexamethasone was not added as a control, cell proliferation inhibitory rate (%) was calculated based on the relative ratio of the obtained absorbance. Here, statistical significance was assessed with one-way analysis of variance and multiple comparison. Tukey's multiple comparison was used for the multiple comparison. A significance level of P<0.05 (vs. no addition of oligonucleotide) was regarded as a significant difference.
# BrdU incorporation assay was performed in the same manner as in the above, and alternation of the glucocorticoid sensitivity of the cells caused by the introduction of any one of oligonucleotides 2 to 5 was examined. Each experiment was carried out in quadruplicate. The values shown in Table 7 are average values thereof.
# GRα and GRβ = GRα and GRβ expression levels in Raji cells transfected with oligonucleotide (RT-PCR and PCR); type: cell-based, human; details: for GAPDH / GRα / GRβ: expression level (band intensity), oligonucleotide 300 nM by electroporation, 24 h; for GAPDH: endogenous control; for GRα/GAPDH / GRβ/GAPDH / Relative value of GRα/GRβ: oligonucleotide 300 nM; for Relative value of GRα/GRβ: cells not transfected = 1;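 as to GAPDH: mean of three independent experiments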
# Experimental: Raji cells (manufactured by Japan Health Science Foundation) derived from human Burkitt's lymphoma were used in experiments.
# Raji cells were cultured and maintained in RPMI1640 medium (manufactured by Gibco) at 37° C. in an atmosphere of 5% CO2, the RPMI1640 medium being supplemented with 10% fetal bovine serum (FBS) (manufactured by Filtoron), 100 U/ml penicillin, and 100 μg/ml streptomycin.
# 2×10^6 Raji cells were washed with phosphate-buffered saline (PBS) and suspended in 100 μl transfection reagent of an Amaxa cell line Nucleofector Kit V (manufactured by Lonza).
# After the Raji cells were cultured in the above-described medium for 24 hours, the Raji cells were used for subsequent experiments.
# The expression level of glyceraldehyde-3-phosphate dehydrogenase (GAPDH) was determined as an endogenous control.
# After the Raji cells were washed with PBS, RNA was extracted using a FastPure RNA Kit (manufactured by Takara Bio Inc.), and reverse transcription was performed using a PrimeScript 1st strand cDNA synthesis kit (manufactured by Takara Bio Inc.). The obtained cDNA was amplified using Platinum Taq DNA polymerase (manufactured by Invitrogen) and PCR primers (having the base sequences shown in Table 2) specific for the gene of interest. The PCR conditions included: performing initial denaturation at 94° C. for 2 minutes; performing 35 cycles of denaturation (94° C. for 30 seconds), annealing (55° C. for 30 seconds), and extension (72° C. for 1 minute); and then performing final extension at 72° C. for 4 minutes.
# After the PCR was performed, DNA was separated by […] electrophoresis on a 2% agarose gel containing ethidium bromide, and the intensity of bands was quantified using an image analyzer GEL PRINT 2000i/VGA (manufactured by Genomic Solutions).
Substance,cell proliferation inhibitory rate (Raji cells; dexamethasone 0.1 μM),cell proliferation inhibitory rate (Raji cells; dexamethasone 0.5 μM),cell proliferation inhibitory rate (Raji cells; dexamethasone 1 μM),cell proliferation inhibitory rate (Raji cells; dexamethasone 5 μM),GAPDH (GRα and GRβ),GRα (GRα and GRβ),GRβ (GRα and GRβ),GRα/GAPDH (GRα and GRβ),GRβ/GAPDH (GRα and GRβ),Relative value of GRα/GRβ (GRα and GRβ)
"Oligonucleotide 3: an oligonucleotide having a base sequence represented by SEQ ID NO: 3 (5′-TAAGATGACTTTCTTTTCCCCCACGTATCCT-3′) (listed as DNA, chemistry not given here)",16.924%,34.134%,37.164%,48.256%,3128.467,3177.814,4596.457,1.015,1.471,1.182
"Oligonucleotide 2: an oligonucleotide having a base sequence represented by SEQ ID NO: 2 (5′-AAAAGGGCACAGCTTCTTTTCCCATTTAATGAAA-3′) (listed as DNA, chemistry not given here)",10.541%,19.044%,22.769%,36.402%,3169.938,3340.440,4641.922,1.054,1.467,1.226
"Oligonucleotide 5: an oligonucleotide having a base sequence represented by SEQ ID NO: 5 (5′-CAGATTTTTTTATTATGATGT-3′) (listed as DNA, chemistry not given here)",29.842%,26.632%,32.895%,36.053%,3087.403,3210.228,4516.989,1.041,1.461,1.210

# Reference: patent publication US9234200B2, “Oligonucleotide, glucocorticoid sensitivity enhancer, pharmaceutical composition, and expression vector” (National University Corporation Tokyo University of …, priority 2011, dated 2016)
